The text below walks through data of ChEMBL document CHEMBL1201862, “PubChem BioAssay data set” (2004).

Test systems include HL-60; DMS-114; M14; OVCAR-3; K562; ACHN; SR; SF-295; OVCAR-8; OVCAR-5; HT-29; SNB-19; UACC-257; SK-MEL-28; UO-31; SF-539; A498.
What all share (assay): DTP human tumour cell line panel, 48 h

The term GI50 denotes the concentration that inhibits growth by half.

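How tested: cells in 96-well plates exposed to compound for 48 hours at five concentrations. The concentration for 50% growth inhibition is given as GI50.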 Calls of active or inactive are those of the source. Cut-off read from the data, not from the text of the source: active = GI50 up to about 1.1 µM and inactive = higher.

Turning to `O=C1C=C(N2CCCC2)C=C(N2CCCC2)C1`, the GI50 in the assay with HL-60 is > 100 µM (inactive); in the assay on DMS-114, 79.6 µM (inactive); with M14 it was > 100 µM (inactive); in the assay on OVCAR-3 it was 75.5 µM (inactive); in the assay on K562, > 100 µM (inactive); with ACHN it was > 100 µM (inactive). Moreover, the GI50 in the assay with SR, with SF-295, in the assay with OVCAR-8, in the assay with OVCAR-5, with HT-29 and in the assay on SNB-19 was > 100 µM (inactive) throughout. For the same compound, the GI50 in the assay with UACC-257, in the assay with SK-MEL-28 and in the assay on UO-31 was > 100 µM (inactive) each time.
As to `Nc1ccc2ncc(Nc3ccc(F)cc3)nc2c1`, the GI50 in the assay on HL-60 is > 100 µM (inactive); in the assay with DMS-114, 85.3 µM (inactive); in the assay on M14, > 100 µM (inactive); in the assay with OVCAR-3, > 100 µM (inactive); in the assay with K562, 52.5 µM (inactive); in the assay with ACHN, > 100 µM (inactive). The GI50 is 44 µM (inactive) with SR; > 100 µM (inactive) in the assay on SF-295; > 100 µM (inactive) in the assay on OVCAR-8; 84.5 µM (inactive) in the assay on OVCAR-5; > 100 µM (inactive) in the assay with HT-29; > 100 µM (inactive) in the assay on SNB-19. In addition, the GI50 is > 100 µM (inactive) in the assay with UACC-257, 90.4 µM (inactive) with SF-539, > 100 µM (inactive) with SK-MEL-28 and 99.3 µM (inactive) with UO-31.
As to `Cc1nc2c(sc(=S)n2-c2ccccc2)c2nc3ccccc3n12`, the GI50 with HL-60 was > 100 µM (inactive); with DMS-114, > 100 µM (inactive); in the assay with M14 it was > 100 µM (inactive); in the assay on A498, > 10 µM (inactive); with OVCAR-3, > 100 µM (inactive); in the assay with K562 it was > 100 µM (inactive). Moreover, the GI50 in the assay on ACHN, in the assay on SF-295, in the assay with OVCAR-8, in the assay with OVCAR-5, in the assay on HT-29 and in the assay on SNB-19 was > 100 µM (inactive) throughout. In addition, the GI50 in the assay with UACC-257, in the assay with SF-539, in the assay with SK-MEL-28 and in the assay with UO-31 was > 100 µM (inactive) throughout.
In the case of `O=C(Nc1cccc2ccccc12)Oc1ccccc1C1CCCCC1`, the GI50 in the assay on HL-60 was 27.2 µM (inactive); with DMS-114, 19.9 µM (inactive); with M14, 18.1 µM (inactive); in the assay on A498, 17.6 µM (inactive); in the assay with OVCAR-3 it was 18.6 µM (inactive); with K562, 24.2 µM (inactive). Also, the GI50 was 17.5 µM (inactive) with SR; 16.3 µM (inactive) in the assay on SF-295; 15.9 µM (inactive) in the assay with OVCAR-8; 17.3 µM (inactive) in the assay with OVCAR-5; 18.2 µM (inactive) in the assay on HT-29; 53.6 µM (inactive) with SNB-19. For the same compound, the GI50 in the assay with UACC-257 is 15.5 µM (inactive); in the assay with SF-539 it was 17.5 µM (inactive); in the assay with SK-MEL-28, 22.6 µM (inactive); in the assay on UO-31, 16.1 µM (inactive).
For the compound `NC(=O)C12CC3CC(CC(F)(C3)C1)C2`, the GI50 in the assay with HL-60, with DMS-114, in the assay on M14, in the assay with A498, in the assay with OVCAR-3 and in the assay on K562 was > 100 µM (inactive) each time. Moreover, the GI50 in the assay on ACHN, with OVCAR-8, in the assay on OVCAR-5, in the assay with HT-29, with UACC-257 and in the assay on SF-539 was > 100 µM (inactive) throughout. In addition, the GI50 in the assay on SK-MEL-28 and with UO-31 was > 100 µM (inactive) each time.
On to `C=CCC1(CN(C)C)CC/C(=C\c2ccc(OC)cc2)C1=O` (stereo unspecified), for which the GI50 with HL-60 is 15 µM (inactive); in the assay on DMS-114 it was 37.7 µM (inactive); with M14 it was 74.5 µM (inactive); with A498 it was 73.5 µM (inactive); with OVCAR-3, > 100 µM (inactive); in the assay on K562, 32.9 µM (inactive). The GI50 with ACHN is > 100 µM (inactive); in the assay on SF-295 it was > 100 µM (inactive); with OVCAR-8 it was 69.8 µM (inactive); in the assay on OVCAR-5, > 100 µM (inactive); with HT-29, 36.6 µM (inactive); in the assay with SNB-19, > 100 µM (inactive). The GI50 was 38 µM (inactive) in the assay with UACC-257, > 100 µM (inactive) in the assay with SF-539, > 100 µM (inactive) in the assay on SK-MEL-28 and 89.9 µM (inactive) in the assay with UO-31.
`Cc1ccc(S(=O)(=O)C2=c3nc4ccccc4cc3=C3C(=O)c4ccccc4C(=O)C32)cc1` (stereo unspecified): the GI50 is > 100 µM (inactive) in the assay on HL-60; > 100 µM (inactive) with DMS-114; > 100 µM (inactive) in the assay with M14; 35 µM (inactive) with A498; > 100 µM (inactive) in the assay with OVCAR-3; > 100 µM (inactive) with K562. Moreover, the GI50 with ACHN, in the assay with SR, with OVCAR-8, in the assay on OVCAR-5, with SNB-19 and in the assay on UACC-257 was > 100 µM (inactive) in each case. The GI50 with SF-539, with SK-MEL-28 and in the assay on UO-31 was > 100 µM (inactive) in each case.
Consider `COc1cc2ccc(/C(C)=N/OC(C)=O)cc2cc1OC`, for which the GI50 in the assay on DMS-114 is > 100 µM (inactive); in the assay on M14, > 100 µM (inactive); in the assay with A498, 22.8 µM (inactive); in the assay with OVCAR-3 it was 34.1 µM (inactive); with K562, 94 µM (inactive); in the assay on ACHN, 65.3 µM (inactive). Besides, the GI50 is 49.9 µM (inactive) in the assay with SF-295; > 100 µM (inactive) with OVCAR-8; 63.4 µM (inactive) with OVCAR-5; 64.3 µM (inactive) in the assay with HT-29; > 100 µM (inactive) in the assay with SNB-19; > 100 µM (inactive) with UACC-257. Moreover, the GI50 was 77.1 µM (inactive) in the assay on SF-539, > 100 µM (inactive) in the assay with SK-MEL-28 and 34.7 µM (inactive) in the assay on UO-31.
On to `C=CCC1C(=O)C(C(=O)OC)N2CCc3c([nH]c4ccccc34)C12` (stereo unspecified), for which the GI50 in the assay with HL-60, in the assay on DMS-114, in the assay with M14, with A498, in the assay with OVCAR-3 and with K562 was > 100 µM (inactive) each time. Moreover, the GI50 in the assay with SR is 61.1 µM (inactive); with SF-295 it was > 100 µM (inactive); in the assay with OVCAR-8, > 100 µM (inactive); with OVCAR-5 it was > 100 µM (inactive); in the assay on HT-29, > 100 µM (inactive); with SNB-19, > 100 µM (inactive). Further, the GI50 in the assay with SF-539, with SK-MEL-28 and with UO-31 was > 100 µM (inactive) each time.
`CC(=O)Oc1c(-c2ccccc2)[nH]c2cc([N+](=O)[O-])c(/C(Cl)=C/c3ccccc3)cc12`: the GI50 in the assay with HL-60 was 2.84 µM (inactive); in the assay on DMS-114, 2.17 µM (inactive); with M14 it was 7.73 µM (inactive); in the assay on A498, 2.88 µM (inactive); with OVCAR-3, 7.66 µM (inactive); with K562, 3.82 µM (inactive). The GI50 in the assay with ACHN is 5.4 µM (inactive); in the assay on SR, 3.57 µM (inactive); with SF-295, 4.08 µM (inactive); with OVCAR-8 it was 4.3 µM (inactive); in the assay with OVCAR-5, 4.22 µM (inactive); in the assay with HT-29, 3.2 µM (inactive). For the same compound, the GI50 in the assay on SNB-19 is 8.97 µM (inactive); with UACC-257, 5.77 µM (inactive); in the assay on SK-MEL-28 it was 6.37 µM (inactive); with UO-31 it was 8 µM (inactive).
For the compound `COc1ccc(CC(=O)NCCc2ccc(OC)c(OC)c2)cc1Br`, the GI50 in the assay with HL-60, with DMS-114, in the assay with A498, with K562, in the assay on ACHN and in the assay on SR was > 100 µM (inactive) each time. The GI50 with SF-295 was > 100 µM (inactive); in the assay with OVCAR-8, > 100 µM (inactive); with OVCAR-5, 57.1 µM (inactive); in the assay on HT-29, > 100 µM (inactive); in the assay on SNB-19, > 100 µM (inactive); in the assay with UACC-257, > 100 µM (inactive). The GI50 with SF-539, in the assay with SK-MEL-28 and in the assay on UO-31 was > 100 µM (inactive) throughout.
Regarding `Nc1nc(N)c(CCCCc2ccccc2)c(/C=C/c2ccc([N+](=O)[O-])cc2)n1`, the GI50 was 1.35 µM (inactive) in the assay with HL-60; 1.45 µM (inactive) in the assay with DMS-114; 1.89 µM (inactive) in the assay on M14; 2.43 µM (inactive) in the assay with OVCAR-3; 0.348 µM (active) in the assay on K562; 3.4 µM (inactive) in the assay with ACHN. In addition, the GI50 was 1.56 µM (inactive) with SR; 1.42 µM (inactive) in the assay with SF-295; 2.59 µM (inactive) with OVCAR-8; 3.87 µM (inactive) in the assay with OVCAR-5; 0.925 µM (active) in the assay with HT-29; 3.8 µM (inactive) with SNB-19. Besides, the GI50 with UACC-257 was 2.51 µM (inactive); in the assay with SF-539, 2.16 µM (inactive); in the assay on SK-MEL-28 it was 3.33 µM (inactive); in the assay with UO-31, 1.91 µM (inactive).
Take `O=C1OC(c2ccccc2)(c2ccccc2)CC1CN1CCOCC1` (stereo unspecified): the GI50 with HL-60 was 6.61 µM (inactive); in the assay with DMS-114, 18 µM (inactive); with M14, 17.1 µM (inactive); in the assay on A498 it was > 100 µM (inactive); with OVCAR-3, 15.6 µM (inactive); with K562 it was 24.2 µM (inactive). The GI50 in the assay on ACHN was 17.7 µM (inactive); in the assay on SR it was 3.08 µM (inactive); in the assay with OVCAR-8, 57.8 µM (inactive); with OVCAR-5 it was 29.2 µM (inactive); in the assay on HT-29, 1.95 µM (inactive); with SNB-19, 44.7 µM (inactive). The GI50 with UACC-257 was 5.98 µM (inactive); with SF-539, 17.5 µM (inactive); with SK-MEL-28, 18.1 µM (inactive); with UO-31, 29 µM (inactive).
